Results: paper PMC10964739 (Toxicological Sciences, 2024)

Assays:
[1] = biological target: TOP2B (topoisomerase IIβ) (Homo sapiens, UniProt Q02880); assay: kDNA decatenation assay with recombinant enzyme; format: biochemical
[2] = biological target: TOP2A (topoisomerase IIα) (Homo sapiens, UniProt P11388); assay: kDNA decatenation assay with recombinant enzyme; format: biochemical
Chain of TOP2A (topoisomerase IIα) (P11388 whole entry): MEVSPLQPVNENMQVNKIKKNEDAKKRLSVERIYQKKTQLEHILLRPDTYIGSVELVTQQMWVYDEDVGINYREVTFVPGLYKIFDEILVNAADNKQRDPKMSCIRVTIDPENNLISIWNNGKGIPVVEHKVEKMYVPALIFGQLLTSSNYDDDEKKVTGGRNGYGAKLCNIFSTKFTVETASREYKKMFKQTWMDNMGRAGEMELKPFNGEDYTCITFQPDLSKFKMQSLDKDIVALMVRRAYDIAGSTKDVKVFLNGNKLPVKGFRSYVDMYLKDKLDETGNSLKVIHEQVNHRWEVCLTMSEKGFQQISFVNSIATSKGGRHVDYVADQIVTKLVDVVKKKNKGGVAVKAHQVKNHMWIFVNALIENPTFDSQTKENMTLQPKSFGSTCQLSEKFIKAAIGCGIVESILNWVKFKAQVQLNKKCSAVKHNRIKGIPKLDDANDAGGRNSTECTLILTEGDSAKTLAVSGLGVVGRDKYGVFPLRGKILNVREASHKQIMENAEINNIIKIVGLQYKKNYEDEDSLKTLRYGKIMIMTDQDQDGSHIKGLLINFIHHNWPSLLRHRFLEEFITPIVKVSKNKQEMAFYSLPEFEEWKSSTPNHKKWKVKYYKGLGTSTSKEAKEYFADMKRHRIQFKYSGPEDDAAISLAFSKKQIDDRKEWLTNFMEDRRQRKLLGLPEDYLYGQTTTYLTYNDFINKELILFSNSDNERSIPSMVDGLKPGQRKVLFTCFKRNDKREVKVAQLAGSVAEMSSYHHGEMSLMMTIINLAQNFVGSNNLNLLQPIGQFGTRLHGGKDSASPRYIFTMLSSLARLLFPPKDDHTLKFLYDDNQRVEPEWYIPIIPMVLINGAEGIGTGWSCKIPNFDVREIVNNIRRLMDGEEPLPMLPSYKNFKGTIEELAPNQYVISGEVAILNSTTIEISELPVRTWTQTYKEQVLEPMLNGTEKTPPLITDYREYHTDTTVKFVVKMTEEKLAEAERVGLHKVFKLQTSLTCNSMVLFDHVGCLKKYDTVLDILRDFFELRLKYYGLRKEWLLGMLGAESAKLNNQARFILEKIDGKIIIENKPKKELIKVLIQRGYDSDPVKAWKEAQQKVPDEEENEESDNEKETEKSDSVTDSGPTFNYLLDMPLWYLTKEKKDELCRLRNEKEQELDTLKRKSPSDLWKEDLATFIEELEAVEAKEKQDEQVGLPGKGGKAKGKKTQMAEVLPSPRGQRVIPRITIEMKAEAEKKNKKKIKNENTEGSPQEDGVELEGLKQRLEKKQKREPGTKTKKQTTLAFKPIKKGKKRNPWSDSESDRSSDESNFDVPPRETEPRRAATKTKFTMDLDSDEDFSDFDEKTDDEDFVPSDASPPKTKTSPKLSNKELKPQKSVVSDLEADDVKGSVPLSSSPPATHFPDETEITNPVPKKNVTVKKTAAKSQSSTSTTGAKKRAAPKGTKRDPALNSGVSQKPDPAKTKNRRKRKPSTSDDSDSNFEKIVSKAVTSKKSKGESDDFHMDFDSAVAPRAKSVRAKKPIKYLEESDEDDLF

Chain of TOP2B (topoisomerase IIβ) (Q02880 2-1626): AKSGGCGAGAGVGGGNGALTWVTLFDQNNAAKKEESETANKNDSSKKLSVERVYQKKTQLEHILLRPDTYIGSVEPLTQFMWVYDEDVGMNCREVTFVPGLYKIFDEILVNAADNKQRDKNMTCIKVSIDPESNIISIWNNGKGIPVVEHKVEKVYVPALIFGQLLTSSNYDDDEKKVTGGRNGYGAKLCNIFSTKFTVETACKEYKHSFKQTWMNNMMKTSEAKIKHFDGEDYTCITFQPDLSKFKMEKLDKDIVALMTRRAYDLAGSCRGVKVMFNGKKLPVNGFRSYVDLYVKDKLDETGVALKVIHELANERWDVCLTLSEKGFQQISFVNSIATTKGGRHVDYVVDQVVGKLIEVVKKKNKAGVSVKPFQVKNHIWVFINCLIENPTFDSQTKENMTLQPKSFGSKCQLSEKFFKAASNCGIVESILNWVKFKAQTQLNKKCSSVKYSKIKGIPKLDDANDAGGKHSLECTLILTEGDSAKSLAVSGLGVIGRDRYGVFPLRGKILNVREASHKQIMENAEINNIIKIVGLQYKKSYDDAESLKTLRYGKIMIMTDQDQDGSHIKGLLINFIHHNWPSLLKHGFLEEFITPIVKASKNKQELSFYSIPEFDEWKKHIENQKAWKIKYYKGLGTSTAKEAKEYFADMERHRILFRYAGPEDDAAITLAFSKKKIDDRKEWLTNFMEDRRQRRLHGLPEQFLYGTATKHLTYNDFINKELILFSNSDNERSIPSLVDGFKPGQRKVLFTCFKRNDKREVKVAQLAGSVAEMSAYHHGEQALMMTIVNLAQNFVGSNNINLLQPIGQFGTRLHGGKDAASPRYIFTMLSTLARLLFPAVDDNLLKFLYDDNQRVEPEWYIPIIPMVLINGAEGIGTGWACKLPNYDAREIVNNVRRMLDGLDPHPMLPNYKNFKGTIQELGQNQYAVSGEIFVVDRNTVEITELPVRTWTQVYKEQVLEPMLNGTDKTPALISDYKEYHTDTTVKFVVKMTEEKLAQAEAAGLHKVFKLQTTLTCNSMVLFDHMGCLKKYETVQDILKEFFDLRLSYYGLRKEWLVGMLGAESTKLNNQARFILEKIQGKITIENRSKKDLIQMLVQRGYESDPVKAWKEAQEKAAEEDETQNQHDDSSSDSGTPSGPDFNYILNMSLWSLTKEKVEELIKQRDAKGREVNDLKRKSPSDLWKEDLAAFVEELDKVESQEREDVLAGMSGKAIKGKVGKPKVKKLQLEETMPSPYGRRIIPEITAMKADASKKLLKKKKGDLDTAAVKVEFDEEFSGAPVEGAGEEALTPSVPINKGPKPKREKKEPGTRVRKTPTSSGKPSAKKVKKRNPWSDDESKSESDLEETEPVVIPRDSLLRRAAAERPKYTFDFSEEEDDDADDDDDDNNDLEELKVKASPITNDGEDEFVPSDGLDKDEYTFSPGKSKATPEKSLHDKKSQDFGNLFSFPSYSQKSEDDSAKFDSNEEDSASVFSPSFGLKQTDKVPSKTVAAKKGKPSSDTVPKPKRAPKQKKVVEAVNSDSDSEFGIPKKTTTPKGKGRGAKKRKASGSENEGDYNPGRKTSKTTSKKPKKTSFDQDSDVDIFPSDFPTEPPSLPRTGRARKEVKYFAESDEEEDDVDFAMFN

## C[C@@H](CN1CC(=O)NC(=O)C1)N1CC(=O)NC(=O)C1 [DEX, dexrazoxane]
[1]
  IC50: ~60 µM
[2]
  IC50: ~60 µM

## CC(Oc1ccc(Oc2cnc3ccc(Cl)cc3n2)cc1)C(=O)O (racemic) [XK469, 2(R)-[4-(7-chloro-2-quinoxalinyl)oxyphenoxy]propionic acid]
[1]
  IC50: ~130 µM
[2]
  IC50: ~130 µM
